# Reference: US20130096141A1, “BICYCLIC HETEROCYCLE DERIVATIVES AND METHODS OF USE THEREOF” (priority 2010, published 2013)
# Molecular target: T1, GPR119 receptor (Homo sapiens, UniProt Q8TDV5)
# T1 construct: expressed in transfected cells
# T1 sequence (Q8TDV5 1-335): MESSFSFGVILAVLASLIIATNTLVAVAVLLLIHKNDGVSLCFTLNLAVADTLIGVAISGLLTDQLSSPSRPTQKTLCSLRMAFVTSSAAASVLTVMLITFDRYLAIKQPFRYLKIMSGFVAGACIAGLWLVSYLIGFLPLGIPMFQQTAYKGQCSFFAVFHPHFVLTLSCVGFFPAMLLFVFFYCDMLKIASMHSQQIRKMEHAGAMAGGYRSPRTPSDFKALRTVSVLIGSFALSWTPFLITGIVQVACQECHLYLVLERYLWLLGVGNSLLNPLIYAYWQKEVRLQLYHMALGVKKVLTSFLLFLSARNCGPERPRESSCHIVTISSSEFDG
# Experiment: cAMP assay in cells transfected with the GPR119 receptor (human)
# Format: cell-based
# Details: increase in intracellular cAMP, read-out: h-cAMP EC50
# Protocol: The activity of these compounds may be assayed in cells transfected the GPR119 receptor (human, mouse, rat or monkey). Incubation with the above compounds results in an increase in intracellular cAMP, from which an EC50 value may be calculated. Ki values for compounds at this receptor can be determined by employing a radio-labeled agonist. In vivo activity can be determined by conducting an oral glucose-tolerance test in an appropriate species, such as mouse.
row,Structure (SMILES),EC50
1,CC(C)(C)OC(=O)N1CC2COCC(C1)C2Oc1ncnc2c(-c3ccc(C#N)cc3F)csc12 (stereo not shown) [Example 1],8 nM
2,CC(C)(C)OC(=O)N1CC2COCC(C1)C2Oc1ncnc2c(-c3ccc(S(C)(=O)=O)cc3F)csc12 (stereo not shown) [Example 2],62 nM
3,CC1(OC(=O)N2CC3COCC(C2)C3Oc2ncnc3c(-c4ccc(C#N)cc4F)csc23)CC1 (stereo not shown) [Example 3],9 nM
4,CS(=O)(=O)c1ccc(-c2csc3c(OC4C5COCC4CN(c4ncc(Cl)cn4)C5)ncnc23)c(F)c1 (stereo not shown) [Example 4],23 nM
5,CC(C)(C)OC(=O)N1CC2COCC(C1)C2Oc1ncnc2c(-c3ccc(F)cc3F)csc12 (stereo not shown) [Example 5],18 nM
6,CC1(OC(=O)N2CC3COCC(C2)C3Oc2ncnc3c(-c4ccc(F)cc4F)csc23)CC1 (stereo not shown) [Example 6],16 nM
7,CS(=O)(=O)c1ccc(-c2csc3c(OC4C5COCC4CN(c4ncc(F)cn4)C5)ncnc23)c(F)c1 (stereo not shown) [Example 7],47 nM
8,CCCc1cnc(N2CC3COCC(C2)C3Oc2ncnc3c(-c4ccc(S(C)(=O)=O)cc4F)csc23)nc1 (stereo not shown) [Example 8],150 nM
9,CC(C)(C)OC(=O)N1CC2COCC(C1)C2Oc1ncnc2c(-c3ccc(C#N)cc3Cl)csc12 (stereo not shown) [Example 9],47 nM
10,CC1(OC(=O)N2CC3COCC(C2)C3Oc2ncnc3c(-c4ccc(C#N)cc4Cl)csc23)CC1 (stereo not shown) [Example 10],24 nM
11,N#Cc1ccc(-c2csc3c(OC4C5COCC4CN(c4ncc(Cl)cn4)C5)ncnc23)c(Cl)c1 (stereo not shown) [Example 11],18 nM
12,CC1(OC(=O)N2CC3COCC(C2)C3Oc2ncnc3c(-c4ccc(C(=O)C5CC5)cc4Cl)csc23)CC1 (stereo not shown) [Example 12],86 nM
13,CC1(OC(=O)N2CC3COCC(C2)C3Oc2ncnc3c(-c4ccc(C#N)cc4F)c[nH]c23)CC1 (stereo not shown) [Example 14],298 nM
14,CS(=O)(=O)c1ccc(-c2c[nH]c3c(OC4C5COCC4CN(c4ncc(Cl)cn4)C5)ncnc23)c(F)c1 (stereo not shown) [Example 16],247 nM
15,Cn1cc(-c2ccc(C#N)cc2F)c2ncnc(OC3C4COCC3CN(C(=O)OC3(C)CC3)C4)c21 (stereo not shown) [Example 17],13 nM
16,Cn1cc(-c2ccc(S(C)(=O)=O)cc2F)c2ncnc(OC3C4COCC3CN(c3ncc(Cl)cn3)C4)c21 (stereo not shown) [Example 21],5.3 nM
17,CC1(OC(=O)N2CC3COCC(C2)C3Oc2ncnc3c(-c4ccc(Cl)cc4F)csc23)CC1 (stereo not shown) [Example 22],2 nM
18,COc1ccc(-c2csc3c(OC4C5COCC4CN(C(=O)OC4(C)CC4)C5)ncnc23)c(F)c1 (stereo not shown) [Example 23],1.1 nM
19,CC1(OC(=O)N2CC3COCC(C2)C3Oc2ncnc3c(-c4ccc(F)cc4C#N)csc23)CC1 (stereo not shown) [Example 24],1.2 nM
20,COc1ccc(-c2csc3c(OC4C5COCC4CN(c4ncc(Cl)cn4)C5)ncnc23)c(F)c1 (stereo not shown) [Example 28],2.1 nM
21,Cn1cc(-c2ccc(F)cc2F)c2ncnc(OC3C4COCC3CN(C(=O)OC3(C)CC3)C4)c21 (stereo not shown) [Example 31],8.4 nM
22,COc1ccc(-c2cn(C)c3c(OC4C5COCC4CN(C(=O)OC4(C)CC4)C5)ncnc23)c(F)c1 (stereo not shown) [Example 32],5.7 nM
23,Fc1ccc(-c2csc3c(OC4C5COCC4CN(CC(F)(F)C(F)(F)F)C5)ncnc23)c(F)c1 (stereo not shown) [Example 34],72 nM
24,COc1ccc(-c2csc3c(OC4C5COCC4CN(CC(F)(F)C(F)(F)F)C5)ncnc23)c(F)c1 (stereo not shown) [Example 35],45 nM
25,N#Cc1ccc(-c2csc3c(OC4C5COCC4CN(CC(F)(F)C(F)(F)F)C5)ncnc23)c(Cl)c1 (stereo not shown) [Example 36],35 nM
26,N#Cc1ccc(-c2csc3c(OC4C5COCC4CN(CC(F)(F)C(F)(F)F)C5)ncnc23)c(F)c1 (stereo not shown) [Example 37],1.6 nM
27,COC(=O)COc1ccc(-c2csc3c(OC4C5COCC4CN(C(=O)OC4(C)CC4)C5)ncnc23)c(F)c1 (stereo not shown) [Example 46],2.5 nM
28,CC1(OC(=O)N2CC3COCC(C2)C3Oc2ncnc3c(-c4ccc(F)c(CO)c4F)csc23)CC1 (stereo not shown) [Example 48],1.4 nM
29,Cc1c(F)ccc(-c2csc3c(OC4C5COCC4CN(C(=O)OC4(C)CC4)C5)ncnc23)c1F (stereo not shown) [Example 49],1.7 nM
30,CC1(OC(=O)N2CC3COCC(C2)C3Oc2ncnc3c(-c4ccc(S(C)(=O)=O)cc4)csc23)CC1 (stereo not shown) [Example 50],2.2 nM

# Stronger by EC50, values ahead:
row,EC50,Structure (SMILES)
1,0.46 nM,COC(=O)c1ccc(-c2csc3c(OC4C5COCC4CN(C(=O)OC4(C)CC4)C5)ncnc23)c(F)c1 (stereo not shown) [Example 25]
2,0.76 nM,COc1ccc(-c2csc3c(OC4C5COCC4CN(C(=O)OC(C)C)C5)ncnc23)c(F)c1 (stereo not shown) [Example 27]
3,0.48 nM,CC1(OC(=O)N2CC3COCC(C2)C3Oc2ncnc3c(-c4ccc(CO)cc4F)csc23)CC1 (stereo not shown) [Example 29]
4,0.74 nM,COCc1ccc(-c2csc3c(OC4C5COCC4CN(C(=O)OC4(C)CC4)C5)ncnc23)c(F)c1 (stereo not shown) [Example 30]
5,1 nM,CS(=O)(=O)c1ccc(-c2csc3c(OC4C5COCC4CN(CC(F)(F)C(F)(F)F)C5)ncnc23)c(F)c1 (stereo not shown) [Example 33]
6,0.44 nM,COc1ccc(-c2csc3c(OC4C5COCC4CN(C(=O)OC4(C)CC4)C5)ncnc23)c(Cl)c1 (stereo not shown) [Example 38]
7,0.36 nM,Cc1ccc(-c2csc3c(OC4C5COCC4CN(C(=O)OC4(C)CC4)C5)ncnc23)c(F)c1 (stereo not shown) [Example 39]
8,0.51 nM,CC1(OC(=O)N2CC3COCC(C2)C3Oc2ncnc3c(-c4ncc(F)cc4F)csc23)CC1 (stereo not shown) [Example 40]
9,0.47 nM,CC1(OC(=O)N2CC3COCC(C2)C3Oc2ncnc3c(-c4ccc(S(C)(=O)=O)cc4F)csc23)CC1 (stereo not shown) [Example 41]
10,1 nM,Cn1cc(-c2ccc(S(C)(=O)=O)cc2F)c2ncnc(OC3C4COCC3CN(C(=O)OC3(C)CC3)C4)c21 (stereo not shown) [Example 42]
11,0.38 nM,CCS(=O)(=O)c1ccc(-c2csc3c(OC4C5COCC4CN(C(=O)OC4(C)CC4)C5)ncnc23)cc1 (stereo not shown) [Example 43]
12,1 nM,CC1(OC(=O)N2CC3COCC(C2)C3Oc2ncnc3c(-c4ccc(O)cc4F)csc23)CC1 (stereo not shown) [Example 44]
13,0.1 nM,CC1(OC(=O)N2CC3COCC(C2)C3Oc2ncnc3c(-c4ccc(F)cc4Cl)csc23)CC1 (stereo not shown) [Example 45]
14,1 nM,CC1(OC(=O)N2CC3COCC(C2)C3Oc2ncnc3c(-c4ccc(C#N)cc4)csc23)CC1 (stereo not shown) [Example 47]
15,0.65 nM,CC1(OC(=O)N2CC3COCC(C2)C3Oc2ncnc3c(-c4ccc(OCCO)cc4F)csc23)CC1 (stereo not shown) [Example 51]
16,0.5 nM,CC(C)(O)COc1ccc(-c2csc3c(OC4C5COCC4CN(C(=O)OC4(C)CC4)C5)ncnc23)c(F)c1 (stereo not shown) [Example 52]
